According to ChEMBL document CHEMBL1201862, “PubChem BioAssay data set” (2004):
Calls of active or inactive are those of the source.

Legend:
[1] = target: T1, Ubiquitin-conjugating enzyme E2 N (Homo sapiens, UniProt P61088); assay type: functional;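 further: Dose-response confirmation in a TR-FRET assay detecting UBC13-driven polyubiquitin chain formation, inhibition measured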
T1 sequence (P61088 whole entry): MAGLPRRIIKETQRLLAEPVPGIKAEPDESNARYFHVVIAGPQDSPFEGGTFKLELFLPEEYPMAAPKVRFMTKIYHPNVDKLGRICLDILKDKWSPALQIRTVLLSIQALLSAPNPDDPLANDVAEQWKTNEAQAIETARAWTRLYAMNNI

[2] = target: Prothrombin (Homo sapiens, UniProt P00734); experiment: Thrombin 1536 HTS Dose Response Confirmation. [Related pubchem assays: 1046 (Thrombin 1536 HTS; hits were confirmed in this assay)]; assay type: functional
[3] = inhibitors of intracellular T. cruzi replication, confirmation, NIH3T3 host cells, beta-gal luminescence (AID 2044); assay type: functional, cell-based;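 further: intracellular parasites grown in NIH/3T3 mouse fibroblasts as host cells; luminescent beta-galactosidase reporter signal from transgenic T. cruzi replicating inside host cells; inhibitors lower the luminescence signal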
[4] = cytotoxicity toward NIH3T3 fibroblasts, dose response, counter-screen, cell-based, ATP luminescence, mouse fibroblasts (AID 2010); assay type: functional;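 further: cells exposed to compound for about 90 hours before reading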
[5] = target: T2, Calpain-2 catalytic subunit (Sus scrofa, UniProt P43367); experiment: pig calpain II inhibitor potency, dose response, biochemical, fluorogenic peptide substrate (AID 1420); assay type: functional
T2 sequence (P43367 whole entry): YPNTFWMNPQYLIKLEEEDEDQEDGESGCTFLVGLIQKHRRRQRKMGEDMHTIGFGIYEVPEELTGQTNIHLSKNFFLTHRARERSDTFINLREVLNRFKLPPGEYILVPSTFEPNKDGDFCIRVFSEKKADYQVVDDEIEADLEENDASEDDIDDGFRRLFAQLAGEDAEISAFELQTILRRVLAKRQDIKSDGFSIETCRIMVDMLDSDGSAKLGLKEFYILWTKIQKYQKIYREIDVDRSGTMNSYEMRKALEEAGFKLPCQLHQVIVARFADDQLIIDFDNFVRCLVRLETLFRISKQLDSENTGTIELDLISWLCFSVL

[6] = target: T3, Cytochrome P450 1A2 (Homo sapiens, UniProt P05177);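 further: PubChem cytochrome P450 panel assay, CYP1A2 panel member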
T3 sequence (P05177 whole entry): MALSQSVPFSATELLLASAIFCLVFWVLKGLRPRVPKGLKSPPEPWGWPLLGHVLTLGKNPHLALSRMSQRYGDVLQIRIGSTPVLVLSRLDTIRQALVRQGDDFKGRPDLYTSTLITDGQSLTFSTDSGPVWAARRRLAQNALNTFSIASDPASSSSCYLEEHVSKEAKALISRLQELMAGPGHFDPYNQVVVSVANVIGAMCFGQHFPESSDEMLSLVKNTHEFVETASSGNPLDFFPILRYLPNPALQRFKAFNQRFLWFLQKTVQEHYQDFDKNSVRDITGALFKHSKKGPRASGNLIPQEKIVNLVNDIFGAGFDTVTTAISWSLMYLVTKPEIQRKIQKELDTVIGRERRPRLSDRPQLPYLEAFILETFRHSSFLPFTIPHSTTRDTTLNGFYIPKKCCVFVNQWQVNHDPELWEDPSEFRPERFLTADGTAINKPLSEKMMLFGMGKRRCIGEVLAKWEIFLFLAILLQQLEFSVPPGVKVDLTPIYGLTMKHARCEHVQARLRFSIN

[7] = inhibitors of HIV Env-driven cell fusion, dose response, cherry-pick (AID 652057); assay type: functional, cell-based
[8] = ZM109 Env clade C HIV-1 fusion inhibitors, dose response, HeLa effector, CEM target cells, luciferase, cherry-pick (AID 652058); assay type: functional, cell-based
[9] = off-target signal loss in HeLa-CEM21 co-culture – HeLa F-luc CTL cells, cherry-picked, counter-screen for HIV-1 Env fusion inhibitor project, dose response (AID 652040); assay type: functional, cell-based;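 further: potency for signal decrease marking cytotoxic or nonspecific inhibition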
[10] = inhibitors of clade B AD8 Env fusion, dose response, cell-based, cherry-pick (AID 652062); assay type: functional;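 further: luciferase signal from cell-cell fusion driven by HIV-1 clade B AD8 Env; potency is for inhibitors of fusion seen as a drop in luminescence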
[11] = microbe, parasite or virus in culture; assay type: functional; settings: Mycobacterium tuberculosis
[12] = test system: BJ; experiment: cells; assay type: functional, cell-based; settings: Homo sapiens
[13] = test system: BJ; experiment: cytotoxicity toward BJ-TERT-LT-ST fibroblasts, dose response, cell-based, RAS-independent, luminescence (AID 1935); assay type: functional; settings: Homo sapiens;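 further: BJ fibroblasts immortalized with TERT plus LT and ST oncogenes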
[14] = cytotoxicity toward DRD oncogenic fibroblasts, dose response, cell-based, non-viral oncogenic, luminescence (AID 1934); assay type: functional; settings: Homo sapiens
[15] = test system: BJ; experiment: cytotoxicity toward BJ-TERT fibroblasts, dose response, cell-based, RAS-independent, luminescence (AID 1933); assay type: functional; settings: Homo sapiens
[16] = target: Cytochrome P450 2C9 (Homo sapiens, UniProt P11712)
Sequence of Cytochrome P450 2C9 (P11712 whole entry): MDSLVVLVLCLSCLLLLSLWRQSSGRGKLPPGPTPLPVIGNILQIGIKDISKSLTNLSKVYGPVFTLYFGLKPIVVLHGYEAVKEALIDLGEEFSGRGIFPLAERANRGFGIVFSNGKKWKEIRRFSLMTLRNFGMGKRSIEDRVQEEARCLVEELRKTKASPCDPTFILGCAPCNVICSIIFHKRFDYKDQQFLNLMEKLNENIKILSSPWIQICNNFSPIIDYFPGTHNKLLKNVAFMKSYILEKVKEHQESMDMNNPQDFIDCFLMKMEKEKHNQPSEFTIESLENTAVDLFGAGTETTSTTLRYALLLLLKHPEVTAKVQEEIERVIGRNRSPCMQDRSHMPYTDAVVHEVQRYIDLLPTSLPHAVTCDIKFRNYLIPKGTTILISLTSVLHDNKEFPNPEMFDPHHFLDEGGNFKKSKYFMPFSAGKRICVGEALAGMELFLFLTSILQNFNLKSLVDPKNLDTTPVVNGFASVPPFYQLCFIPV

NC(=O)CCn1c(C(=O)c2cc(Cl)c(N)c(Cl)c2)c2ccccc2[n+]1[O-]
IC50 [1]: > 20 µM (inactive)

CCc1nc2ccccc2c(C(=O)OCC(=O)C(C)(C)C)c1C
IC50 [2]: > 50 µM (not active)

Cc1cc(C)cc(OCC(=O)NNC(=O)CN2C(=O)c3ccccc3C2=O)c1
IC50 [2]: > 50 µM (not active)

CCC(C(=O)OCC(=O)Nc1ccc(SC(F)F)cc1)c1ccccc1 (centres undefined)
IC50 [2]: > 50 µM (not active)
EC50 [3]: 1.68 µM (active)
EC50 [4]: > 60 µM (not active)
IC50 [5]: 7.17 µM (not active)

COc1ccc2cc(C(=O)N3CCCCCC3)sc(=O)c2c1OC
IC50 [5]: 11.1 µM (active)

Cn1c(=O)n(-c2cccc(Cl)c2)c(=O)c2c3c(sc21)COC(C)(C)C3
AC50 [6]: 14.1 µM (inconclusive)
AC50 [7]: 3.65 µM (active)
AC50 [8]: 3.36 µM (active)
AC50 [9]: 6.71 µM (active)
AC50 [10]: 1.37 µM (active)

Cc1cccc(NS(=O)(=O)c2ccc(C(=O)N3CCN(c4ccccc4O)CC3)cc2)c1C
CC50 [11]: 36.6 µM (active)

CCCc1cnc(NCCNCC(O)COc2ccc(Cl)c(Cl)c2)nc1 (centres undefined)
CC50 [11]: 22.1 µM (active)

CCOC(=O)c1[nH]c(C)c(C(=O)c2ccc(C)cc2)c1C
EC50 [12]: 23.5 µM (active)
EC50 [13]: 27.4 µM (inconclusive)
EC50 [14]: 3.16 µM (active)
EC50 [15]: 3.19 µM (inconclusive)

COc1cccc(C(=O)N2c3ccccc3Sc3ccccc32)c1
IC50 [5]: 6.88 µM (not active)

CCOc1ccc(N2C(=O)C3C(c4ccccc4)=NN(c4ccccc4)C3C2=O)cc1 (centres undefined)
IC50 [1]: > 20 µM (inactive)

COc1ccccc1C(=O)n1nc(-c2ccco2)nc1N
IC50 [2]: 6.93 µM (active)

Cc1ccc(C(=O)O)cc1N1C(=O)c2cccc3cc(Br)cc(c23)C1=O
AC50 [16]: 15.8 µM (inconclusive)
IC50 [5]: 7.36 µM (not active)
